These results are taken from US10246498B2, “Genetically encoded histone reporter allele constructs” (THE JOHNS HOPKINS UNIVERSITY, priority 2014, dated 2019).

SMILES strings stand for the structures. Entries after “also recorded” stand apart in the source; their conditions may differ.

Experiment [1] concerns Kmt2d+/βGeo mouse model of Kabuki syndrome. In words: Morris water maze. It counts as in vivo. The settings on record: 10 mg/kg/day. The text has this: Kmt2d^+/βGeo mice, also named Mll2Gt^(RRt024)Byg, were acquired from Bay Genomics (University of California). All experimental mice were on a mixed C57BL/6J and 129/SvEv background. Expected Mendelian ratios were observed when heterozygous animals were bred to wild-type. In heterozygous crosses, however, there was uniform embryonic lethality of homozygotes by ED12, the earliest developmental stage assayed. For treatment with AR-42, mice were orally gavaged daily with drug (Selleck Chemicals, Houston, Tex.) solubilized in vehicle (0.5% methylcellulose, 0.1% Tween-80, water) or with vehicle alone. Drug delivery information was kindly provided by Drs. […] For quantification of DCX positive cells, doses of 0, 5, 10 and 25 mg/kg/day were used. […] Maxillary protrusion was evaluated by ten investigators blinded to genotype and they were asked to rate maxillary protrusion on radiographs as either large (2) or small (1). […]
Mice were placed in a 1.1 meter diameter tank filled with room temperature water dyed with non-toxic white paint. […] Latency to reach the platform was measured during each trial. […] Average number of crossings of the platform's previous location was recorded. […] For all training and probe testing, data was recorded both manually and electronically with ANY-maze software (San Diego Instruments, San Diego, Calif.) when applicable. […]

The subject of experiment [2] is DCX positive cells in the GCL. The experiment in a line: Doublecortin (DCX) expression in the GCL (neurogenesis) after oral AR-42. It counts as in vivo, mouse. The text has this: Kmt2d^+/βGeo mice, also named Mll2Gt^(RRt024)Byg, were acquired from Bay Genomics (University of California). All experimental mice were on a mixed C57BL/6J and 129/SvEv background. Expected Mendelian ratios were observed when heterozygous animals were bred to wild-type. In heterozygous crosses, however, there was uniform embryonic lethality of homozygotes by ED12, the earliest developmental stage assayed. For treatment with AR-42, mice were orally gavaged daily with drug (Selleck Chemicals, Houston, Tex.) solubilized in vehicle (0.5% methylcellulose, 0.1% Tween-80, water) or with vehicle alone. Drug delivery information was kindly provided by Drs. Chen and Kulp from Ohio State University (Huang et al. (2011) Mol. Pharmacol. 79:197-20619). Drug was administered for 14 days and mice were sacrificed on day 15. Morris water maze testing was initiated at day 7 and a dose of 10 mg/kg/day was used for these studies. For quantification of DCX positive cells, doses of 0, 5, 10 and 25 mg/kg/day were used. Genotyping was performed using primers B-GeoF-([…]; SEQ ID NO: 1) and B-GeoR-([…]; SEQ ID NO: 2) that are specific for the targeted allele and TcrdF-([…]; SEQ ID NO: 3) and TcrdR-([…]; SEQ ID NO: 4) that control for sufficient DNA concentration. Real-time PCR using the same primers allows discrimination between the heterozygous and homozygous state for the targeted allele. Maxillary protrusion was evaluated by ten investigators blinded to genotype and they were asked to rate maxillary protrusion on radiographs as either large (2) or small (1). […] All experiments were performed using mouse protocols approved by the Animal Care and Committee of Johns Hopkins University School of Medicine. The mouse protocols used for this study are in accordance with the guidelines used by the NIH for mouse care and handling.
Every 6th brain section was selected and then blocked with 5% Bovine Serum Albumin (BSA) at room temperature followed by incubation with primary antibodies overnight at 4° C. Secondary antibodies were then applied for 1 hour at room temperature, after which sections were mounted onto microscope slides with Vectamount with DAPI (Vector Laboratories, Burlingame, Calif.). Primary antibodies included Doublecortin (DCX) (SC-8066, Santa Cruz Biotechnology, Dallas, Tex., 1:200 goat), trimethylated H3K4 (9727L, Cell Signaling Technology, Beverly, Mass., 1:500 rabbit), and Kmt2d H-300 (SC-292359, Santa Cruz Biotechnology, Dallas, Tex., 1:500 rabbit). Non-specific binding was not observed when sections were sequentially exposed to serum (or IgG when appropriate) from the same species as the primary antibody for each experiment (i.e. rabbit for KMT2D and H3K4me3 and goat for doublecortin), followed by the secondary antibody used for KMT2D and H3K4me3 (anti-rabbit) or doublecortin (anti-goat, FIG. 29).
The area of both the GCL and DCX+ cells was measured using the NS elements 2.0 software (Nikon, Tokyo, JPN). Normalized DCX area was calculated by measuring the DCX+ area of the GCL and setting the baseline (Kmt2d^+/+) fraction to 1. A Student t-test with significance value set at P<0.05 was used for comparison of DCX+ area referenced to GCL area between genotypes and treatment arms.

In a further experiment the test system is Klf10. The experiment in a line: Real-time PCR of Kmt2d target gene Klf10 in spleen cells. It counts as in vivo, mouse. The settings on record: spleen cells of Kmt2d+/βGeo mice. The protocol:
Real-time PCR was performed using Kmt2d-specific probes for exons 20 and 52 (Mm_02600438 and Mm_01717664, respectively) from TaqMan® Gene Expression Assays (Life Technologies, Carlsbad, Calif.). For a comparison of transfection efficiencies for indicator constructs in transient transfection studies, real-time PCR was performed using SYBR Green Real-Time PCR Master Mix (Life Technologies, Carlsbad, Calif.) and primers IND-F-([…]; SEQ ID NO: 5) and IND-R-([…]; SEQ ID NO: 6) that are specific for the H3K4 methylation indicator. For expression analysis for KMT2D target gene KLF10, real-time PCR was performed using Klf10-specific expression assay (Mm00449812_m1) from TaqMan® Gene Expression Assays (Life Technologies, Carlsbad, Calif.).
A general note: Quantitative PCR measures a nucleic acid by following its amplification.

`CC(C)[C@H](C(=O)Nc1ccc(C(=O)NO)cc1)c1ccccc1` [AR-42]: the “frequency of platform crossing, probe trial” value in experiment [1] is on record as “improved performance; also recorded: normalized”. Moreover, the “escape latency during training, with versus without drug” value in experiment [1] (Kmt2d+/βGeo animals) is “No significant difference”. Also, the DCX expression entry is recorded as “improved” in experiment [2] (10 mg/kg/day, older (5-6 months) Kmt2d+/βGeo mice); “reduced DCX expression” in experiment [2] (25 mg/kg/day, Kmt2d+/+ animals); “did not improve DCX expression” in experiment [2] (25 mg/kg/day, Kmt2d+/βGeo mice); “preservation or restoration of DCX expression” in experiment [2] (5 and 10 mg/kg/day, Kmt2d+/+ or Kmt2d+/βGeo, both age groups). Besides, the “DCX expression in the GCL” value in experiment [2] (25 mg/kg/day, young (1-2 month) and old (5-6 month) mice, both genotypes) is “decreased DCX expression”. For the same compound, the “neurogenesis (normalized DCX expression)” value in experiment [2] (5 and 10 mg/kg/day, 1-2 month old Kmt2d+/βGeo mice) is “dose-dependent increase in neurogenesis”. Also, in the experiment with Klf10, the Klf10 expression result is “normalization of expression of Klf10; also recorded: normalized”.
